Measured values from PMC7914897, “Cytotoxic Potential of a-Azepano- and 3-Amino-3,4-SeCo-Triterpenoids” (International Journal of Molecular Sciences, 2021).

Experiments:
HCT-15 (Colon cancer) = assay: NCI-60 screen (SRB, 48 h); conditions: Homo sapiens; for GI50: HCT-15
COLO 205 (Colon cancer) = assay: NCI-60 screen (SRB, 48 h); conditions: Homo sapiens; for GI50: COLO 205; for IC (TGI): COLO 205, 48 h, read-out: TGI
UACC-62 (Melanoma) = assay: NCI-60 screen (SRB, 48 h); conditions: Homo sapiens; for GI50: UACC-62; for IC (TGI): UACC-62, 48 h, read-out: TGI
[1] = test system: NCI-H23 (NSC lung cancer); assay: NCI-60 screen (SRB, 48 h); conditions: Homo sapiens; for GI50: NCI-H23
Renal Cancer subpanel = assay: NCI-60 screen, subpanel; conditions: Homo sapiens; for IC (TGI): 48 h, read-out: TGI MG_MID; for GI50: read-out: GI50 MG_MID; for CC50: read-out: LC50 MG_MID
Ovarian Cancer subpanel = assay: NCI-60 screen, subpanel; conditions: Homo sapiens; for IC (TGI): 48 h, read-out: TGI MG_MID; for GI50: read-out: GI50 MG_MID; for CC50: read-out: LC50 MG_MID
SK-MEL-2 (Melanoma) = assay: NCI-60 screen (SRB, 48 h); conditions: Homo sapiens; for GI50: SK-MEL-2; for IC (TGI): SK-MEL-2, 48 h, read-out: TGI
SF-295 (CNS cancer) = assay: NCI-60 screen (SRB, 48 h); conditions: Homo sapiens; for GI50: SF-295; for IC (TGI): SF-295, 48 h, read-out: TGI
EKVX (NSC lung cancer) = assay: NCI-60 screen (SRB, 48 h); conditions: Homo sapiens; for IC (TGI): 48 h, read-out: TGI
HOP-62 (NSC lung cancer) = assay: NCI-60 screen (SRB, 48 h); conditions: Homo sapiens; for GI50: HOP-62; for IC (TGI): HOP-62, 48 h, read-out: TGI
HS 578T (Breast cancer) = assay: NCI-60 screen (SRB, 48 h); conditions: Homo sapiens; for IC (TGI): 48 h, read-out: TGI
DU-145 (Prostate cancer) = assay: NCI-60 screen (SRB, 48 h); conditions: Homo sapiens; for GI50: DU-145; for IC (TGI): DU-145, 48 h, read-out: TGI
[2] = test system: A549/ATCC (NSC lung cancer); assay: NCI-60 screen (SRB, 48 h); conditions: Homo sapiens; for GI50: A549; for IC (TGI): A549, 48 h, read-out: TGI
Prostate cancer subpanel = assay: NCI-60 screen, subpanel; conditions: Homo sapiens; for IC (TGI): 48 h, read-out: TGI MG_MID; for GI50: read-out: GI50 MG_MID
T-47D (Breast cancer) = assay: NCI-60 screen (SRB, 48 h); conditions: Homo sapiens, T47D; for IC (TGI): 48 h, read-out: TGI
SN12C (Renal cancer) = assay: NCI-60 screen (SRB, 48 h); conditions: for IC (TGI): 48 h, read-out: TGI
ACHN (Renal cancer) = assay: NCI-60 screen (SRB, 48 h); conditions: Homo sapiens; for IC (TGI): 48 h, read-out: TGI
HOP-92 (NSC lung cancer) = assay: NCI-60 screen (SRB, 48 h); conditions: Homo sapiens; for GI50: HOP-92; for IC (TGI): HOP-92, 48 h, read-out: TGI
MALME-3M (Melanoma) = assay: NCI-60 screen (SRB, 48 h); conditions: Homo sapiens; for IC (TGI): 48 h, read-out: TGI
SW-620 (Colon cancer) = assay: NCI-60 screen (SRB, 48 h); conditions: Homo sapiens; for GI50: SW-620
OVCAR-8 (Ovarian cancer) = assay: NCI-60 screen (SRB, 48 h); conditions: Homo sapiens; for GI50: OVCAR-8; for IC (TGI): OVCAR-8, 48 h, read-out: TGI
[3] = test system: NCI/ADR-RES (Ovarian cancer); assay: NCI-60 screen (SRB, 48 h); conditions: Homo sapiens
SNB-19 (CNS cancer) = assay: NCI-60 screen (SRB, 48 h); conditions: Homo sapiens; for GI50: SNB-19; for IC (TGI): SNB-19, 48 h, read-out: TGI
MCF7 (Breast cancer) = assay: NCI-60 screen (SRB, 48 h); conditions: Homo sapiens; for GI50: MCF7
M14 (Melanoma) = assay: NCI-60 screen (SRB, 48 h); conditions: Homo sapiens; for GI50: M14; for IC (TGI): M14, 48 h, read-out: TGI
UO-31 (Renal cancer) = assay: NCI-60 screen (SRB, 48 h); conditions: Homo sapiens; for GI50: UO-31; for IC (TGI): UO-31, 48 h, read-out: TGI
K-562 (Leukemia) = assay: NCI-60 screen (SRB, 48 h); conditions: Homo sapiens; for GI50: K562
SK-MEL-28 (Melanoma) = assay: NCI-60 screen (SRB, 48 h); conditions: Homo sapiens; for GI50: SK-MEL-28

Compound: C=C(C)[C@@H]1CCC=C2CC[C@]3(C)[C@H](CC[C@@H]4[C@@]5(C)CCCNC(C)(C)[C@@H]5CC[C@]43C)[C@H]21 [Compound 8]
- GI50 (HCT-15 (Colon cancer)): 1.44 µM
- IC (TGI) (HCT-15 (Colon cancer); HCT-15, 48 h, read-out: TGI): 2.84 µM
- CC50 (HCT-15 (Colon cancer); HCT-15, read-out: LC50): 5.59 µM
- GI50 (COLO 205 (Colon cancer)): 1.38 µM
- IC (TGI) (COLO 205 (Colon cancer)): 2.79 µM
- CC50 (COLO 205 (Colon cancer); COLO 205, read-out: LC50): 5.64 µM
- GI50 (UACC-62 (Melanoma)): 1.73 µM
- IC (TGI) (UACC-62 (Melanoma)): 3.16 µM
- CC50 (UACC-62 (Melanoma); UACC-62, read-out: LC50): 5.76 µM
- GI50 [1]: 1.83 µM
- IC (TGI) ([1]; NCI-H23, 48 h, read-out: TGI): 3.4 µM
- IC (TGI) (Renal Cancer subpanel): 3.34 µM
- GI50 (Renal Cancer subpanel): 1.79 µM
- CC50 (Renal Cancer subpanel): 6.18 µM
- IC (TGI) (Ovarian Cancer subpanel): 3.5 µM
- GI50 (Ovarian Cancer subpanel): 1.84 µM
- CC50 (Ovarian Cancer subpanel): 6.78 µM
- GI50 (SK-MEL-2 (Melanoma)): 2.01 µM
- IC (TGI) (SK-MEL-2 (Melanoma)): 3.69 µM
- CC50 (SK-MEL-2 (Melanoma); SK-MEL-2, read-out: LC50): 6.8 µM
- GI50 (SF-295 (CNS cancer)): 1.81 µM
- IC (TGI) (SF-295 (CNS cancer)): 3.26 µM
- CC50 (SF-295 (CNS cancer); SF-295, read-out: LC50): 5.88 µM
- GI50 (EKVX (NSC lung cancer)): 1.66 µM
- IC (TGI) (EKVX (NSC lung cancer)): 3.21 µM
- GI50 (HOP-62 (NSC lung cancer)): 1.82 µM
- IC (TGI) (HOP-62 (NSC lung cancer)): 3.41 µM
- CC50 (HOP-62 (NSC lung cancer); HOP-62, read-out: LC50): 6.38 µM
- GI50 (HS 578T (Breast cancer)): 1.87 µM
- IC (TGI) (HS 578T (Breast cancer)): 4.39 µM
- CC50 (HS 578T (Breast cancer); read-out: LC50): 15.9 µM
- GI50 (DU-145 (Prostate cancer)): 1.77 µM
- IC (TGI) (DU-145 (Prostate cancer)): 3.33 µM
- CC50 (DU-145 (Prostate cancer); DU-145, read-out: LC50): 6.26 µM
- GI50 [2]: 2.02 µM
- IC (TGI) [2]: 3.73 µM
- CC50 ([2]; A549, read-out: LC50): 6.89 µM
- IC (TGI) (Prostate cancer subpanel): 3.2 µM
- GI50 (Prostate cancer subpanel): 1.71 µM
- CC50 (Prostate cancer subpanel; read-out: LC50 MG_MID): 5.97 µM
- GI50 (T-47D (Breast cancer)): 1.72 µM
- IC (TGI) (T-47D (Breast cancer)): 3.47 µM
- CC50 (T-47D (Breast cancer); read-out: LC50): 7 µM
- GI50 (SN12C (Renal cancer); Homo sapiens): 1.79 µM
- IC (TGI) (SN12C (Renal cancer); Homo sapiens): 3.31 µM
- CC50 (SN12C (Renal cancer); Homo sapiens, read-out: LC50): 6.12 µM
- GI50 (ACHN (Renal cancer)): 1.84 µM
- IC (TGI) (ACHN (Renal cancer)): 3.26 µM
- GI50 (HOP-92 (NSC lung cancer)): 1.37 µM
- IC (TGI) (HOP-92 (NSC lung cancer)): 2.77 µM
- CC50 (HOP-92 (NSC lung cancer); HOP-92, read-out: LC50): 5.61 µM
- GI50 (MALME-3M (Melanoma)): 1.7 µM
- IC (TGI) (MALME-3M (Melanoma)): 3.46 µM
- GI50 (SW-620 (Colon cancer)): 1.92 µM
- IC (TGI) (SW-620 (Colon cancer); SW-620, 48 h, read-out: TGI): 3.75 µM
- GI50 (OVCAR-8 (Ovarian cancer)): 1.99 µM
- IC (TGI) (OVCAR-8 (Ovarian cancer)): 3.94 µM
- CC50 (OVCAR-8 (Ovarian cancer); OVCAR-8, read-out: LC50): 7.79 µM
- GI50 [3]: 1.98 µM
- IC (TGI) ([3]; 48 h, read-out: TGI): 3.8 µM
- CC50 ([3]; read-out: LC50): 7.3 µM
- GI50 (SNB-19 (CNS cancer)): 1.93 µM
- IC (TGI) (SNB-19 (CNS cancer)): 3.44 µM
- GI50 (MCF7 (Breast cancer)): 1.37 µM
- IC (TGI) (MCF7 (Breast cancer); MCF7, 48 h, read-out: TGI): 2.92 µM
- CC50 (MCF7 (Breast cancer); MCF7, read-out: LC50): 6.22 µM
- GI50 (M14 (Melanoma)): 1.89 µM
- IC (TGI) (M14 (Melanoma)): 3.38 µM
- GI50 (UO-31 (Renal cancer)): 1.52 µM
- IC (TGI) (UO-31 (Renal cancer)): 2.89 µM
- CC50 (UO-31 (Renal cancer); UO-31, read-out: LC50): 5.52 µM
- GI50 (K-562 (Leukemia)): 0.32 µM
- GI50 (SK-MEL-28 (Melanoma)): 1.81 µM
- IC (TGI) (SK-MEL-28 (Melanoma); SK-MEL-28, 48 h, read-out: TGI): 3.35 µM
- CC50 (SK-MEL-28 (Melanoma); SK-MEL-28, read-out: LC50): 6.18 µM

Compound: C=C(C)[C@@H]1CC[C@]2(COS(=O)(=O)c3ccc(C)cc3)CC[C@]3(C)[C@@H](CC[C@@H]4[C@@]5(C)CCCNC(C)(C)[C@@H]5CC[C@]43C)[C@@H]12 [Compound 12]
- GI50 (HCT-15 (Colon cancer)): 1.38 µM
- GI50 (COLO 205 (Colon cancer)): 1.75 µM
- IC (TGI) (COLO 205 (Colon cancer)): 3.24 µM
- GI50 (UACC-62 (Melanoma)): 2.05 µM
- IC (TGI) (UACC-62 (Melanoma)): 3.64 µM
- GI50 [1]: 1.75 µM
- IC (TGI) (Renal Cancer subpanel): 3.26 µM
- GI50 (Renal Cancer subpanel): 1.76 µM
- CC50 (Renal Cancer subpanel): 5.87 µM
- IC (TGI) (Ovarian Cancer subpanel): 3.37 µM
- GI50 (Ovarian Cancer subpanel): 1.79 µM
- CC50 (Ovarian Cancer subpanel): 5.82 µM
- GI50 (SK-MEL-2 (Melanoma)): 1.84 µM
- IC (TGI) (SK-MEL-2 (Melanoma)): 3.32 µM
- GI50 (SF-295 (CNS cancer)): 1.6 µM
- IC (TGI) (SF-295 (CNS cancer)): 3.01 µM
- GI50 (EKVX (NSC lung cancer)): 1.62 µM
- IC (TGI) (EKVX (NSC lung cancer)): 3.11 µM
- GI50 (HOP-62 (NSC lung cancer)): 1.65 µM
- IC (TGI) (HOP-62 (NSC lung cancer)): 3.13 µM
- GI50 (HS 578T (Breast cancer)): 1.79 µM
- IC (TGI) (HS 578T (Breast cancer)): 3.94 µM
- GI50 (DU-145 (Prostate cancer)): 1.77 µM
- IC (TGI) (DU-145 (Prostate cancer)): 3.3 µM
- GI50 [2]: 1.87 µM
- IC (TGI) [2]: 3.5 µM
- IC (TGI) (Prostate cancer subpanel): 3.15 µM
- GI50 (Prostate cancer subpanel): 1.67 µM
- GI50 (T-47D (Breast cancer)): 1.57 µM
- IC (TGI) (T-47D (Breast cancer)): 3.15 µM
- Growth % of the Most Sensitive Cell Lines (SN12C (Renal cancer); 1 dose 10 µM): −94.44%
- GI50 (SN12C (Renal cancer); Homo sapiens): 1.88 µM
- IC (TGI) (SN12C (Renal cancer); Homo sapiens): 3.37 µM
- GI50 (ACHN (Renal cancer)): 1.98 µM
- IC (TGI) (ACHN (Renal cancer)): 3.45 µM
- GI50 (HOP-92 (NSC lung cancer)): 1.54 µM
- IC (TGI) (HOP-92 (NSC lung cancer)): 3.01 µM
- GI50 (MALME-3M (Melanoma)): 1.84 µM
- IC (TGI) (MALME-3M (Melanoma)): 3.79 µM
- GI50 (SW-620 (Colon cancer)): 1.83 µM
- GI50 (OVCAR-8 (Ovarian cancer)): 1.91 µM
- IC (TGI) (OVCAR-8 (Ovarian cancer)): 3.65 µM
- GI50 [3]: 1.74 µM
- GI50 (SNB-19 (CNS cancer)): 2.04 µM
- IC (TGI) (SNB-19 (CNS cancer)): 3.68 µM
- GI50 (MCF7 (Breast cancer)): 1.45 µM
- GI50 (M14 (Melanoma)): 1.83 µM
- IC (TGI) (M14 (Melanoma)): 3.3 µM
- GI50 (UO-31 (Renal cancer)): 1.64 µM
- IC (TGI) (UO-31 (Renal cancer)): 3.04 µM
- GI50 (K-562 (Leukemia)): 1.57 µM
- CC50 (K-562 (Leukemia); K562, read-out: LC50): > 100 µM
- GI50 (SK-MEL-28 (Melanoma)): 2.15 µM
